In US12552829B2, “Compositions and methods for treating CNS disorders” (SAGE THERAPEUTICS, INC., priority 2019, dated 2026) one finds IC50 data, which are given here for 18 compounds.

The experiment addresses [35S]-TBPS binding, rat brain cortical membranes (GABAA receptor). The experiment is described as follows: Steroid inhibition of [35S]-TBPS binding. The following applies: 3 nM [35S]-TBPS, in the presence of 5 mM GABA, 90 min at room temp. The procedure:
[^35S]-t-Butylbicyclophosphorothionate (TBPS) binding assays using rat brain cortical membranes in the presence of 5 mM GABA has been described (Gee et al, J. Pharmacol. Exp. Ther. 1987, 241, 346-353; Hawkinson et al, Mol. Pharmacol. 1994, 46, 977-985; Lewin, A. H et al., Mol. Pharmacol. 1989, 35, 189-194).
Briefly, cortices are rapidly removed following decapitation of carbon dioxide-anesthetized Sprague-Dawley rats (200-250 g). The cortices are homogenized in 10 volumes of ice-cold 0.32 M sucrose using a glass/teflon homogenizer and centrifuged at 1500×g for 10 min at 4° C. The resultant supernatants are centrifuged at 10,000×g for 20 min at 4° C. to obtain the P2 pellets. The P2 pellets are resuspended in 200 mM NaCl/50 mM Na-K phosphate pH 7.4 buffer and centrifuged at 10,000×g for 10 min at 4° C. This washing procedure is repeated twice and the pellets are resuspended in 10 volumes of buffer. Aliquots ([…]) of the membrane suspensions are incubated with 3 nM [^35S]-TBPS and […] aliquots of test drug dissolved in dimethyl sulfoxide (DMSO) (final 0.5%) in the presence of 5 mM GABA. The incubation is brought to a final volume of 1.0 mL with buffer. Nonspecific binding is determined in the presence of […] and ranged from 15 to 25%. Following a 90 min incubation at room temp, the assays are terminated by filtration through glass fiber filters (Schleicher and Schuell No. 32) using a cell harvester (Brandel) and rinsed three times with ice-cold buffer. Filter bound radioactivity is measured by liquid scintillation spectrometry. Non-linear curve fitting of the overall data for each drug averaged for each concentration is done using Prism (GraphPad). […] The concentration of test compound producing 50% inhibition (IC50) of specific binding and the maximal extent of inhibition (Imax) are determined for the individual experiments with the same model used for the overall data and then the means±SEM.s of the individual experiments are calculated.
Various compounds are or can be screened to determine their potential as modulators of [^35S]-TBPS binding in vitro. These assays are or can be performed in accordance with the above.

By IC50 is commonly meant the concentration that inhibits the measured activity by half. As to `CCC[C@@]1(O)CC[C@H]2[C@H](CC[C@@H]3[C@@H]2CC[C@@]2(C)[C@H]3[C@H](C)CC[C@@H]2[C@@](C)(O)Cn2cc(C#N)cn2)C1` (single isomer, unassigned) [Example 34], the concentration for half-maximal inhibition (IC50) is less than 100 nM.
For the compound `C[C@]1(O)CCC2=CC[C@H]3[C@@H]4CC[C@H]([C@](C)(O)Cn5cc(C#N)cn5)[C@@]4(C)CC[C@@H]3[C@@]2(C)CC1` [Example 18, 1-((S)-2-hydroxy-2-((1S,3aS,3bS,8S,10aR,10bS,12aS)-8-hydroxy-8,10a,12a-trimethyl-1,2,3,3a,3b,4,6,7,8,9,10,10a,10b,11,12,12a-hexadecahydrocyclohepta[a]cyclopenta[f]naphthalen-1-yl)propyl)-1H-pyrazole-4-carbonitrile], the IC50 was in the range of 100 to 1000 nM.
Take `CCC[C@@]1(O)CC[C@H]2[C@H](CC[C@@H]3[C@@H]2CC[C@@]2(C)[C@H]3CCC[C@@H]2[C@](C)(O)Cn2cc(C#N)cn2)C1` [Example 9, 1-((S)-2-hydroxy-2-((1S,4aS,4bR,6aR,8R,10aS,10bR,12aS)-8-hydroxy-12a-methyl-8-propyloctadecahydrochrysen-1-yl)propyl)-1H-pyrazole-4-carbonitrile]: the IC50 is less than 100 nM.
As to `CCC[C@@]1(O)CC[C@H]2[C@@H](CC[C@@H]3[C@@H]2CC[C@@]2(C)[C@H]3CCC[C@@H]2[C@](C)(O)Cn2cc(C#N)cn2)C1` [Example 1, 1-((S)-2-hydroxy-2-((1S,4aS,4bR,6aS,8R,10aS,10bR,12aS)-8-hydroxy-12a-methyl-8-propyloctadecahydrochrysen-1-yl)propyl)-1H-pyrazole-4-carbonitrile], the IC50 was 100 to 1000 nM.
With `C[C@]1(O)CCC2=CC[C@H]3[C@@H]4CC[C@H]([C@@](C)(O)Cn5cc(C#N)cn5)[C@@]4(C)CC[C@@H]3[C@@]2(C)CC1` [Example 19, 1-((R)-2-hydroxy-2-((1S,3aS,3bS,8S,10aR,10bS,12aS)-8-hydroxy-8,10a,12a-trimethyl-1,2,3,3a,3b,4,6,7,8,9,10,10a,10b,11,12,12a-hexadecahydrocyclohepta[a]cyclopenta[f]naphthalen-1-yl)propyl)-1H-pyrazole-4-carbonitrile], the IC50 was less than 100 nM.
Regarding `C[C@@]1(O)CCC[C@H]2[C@H](CC[C@@H]3[C@@H]2CC[C@@]2(C)[C@H]3CC[C@@H]2[C@@](C)(O)Cn2cc(C#N)cn2)C1` [Example 21, 1-((R)-2-hydroxy-2-((1S,3aS,3bR,5aR,7R,10aS,10bR,12aS)-7-hydroxy-7,12a-dimethyloctadecahydrocyclohepta[a]cyclopenta[f]naphthalen-1-yl)propyl)-1H-pyrazole-4-carbonitrile], the IC50 fell in the range of 100 to 1000 nM.
The same measure for `CCC[C@@]1(O)CC[C@@]2(C)[C@@H](CC[C@@H]3[C@@H]2CC[C@@]2(C)[C@H]3CCC[C@@H]2[C@@](C)(O)Cn2cc(C#N)cn2)C1` [Example 17, 1-((R)-2-hydroxy-2-((1S,4aS,4bR,6aS,8R,10aS,10bS,12aS)-8-hydroxy-10a,12a-dimethyl-8-propyloctadecahydrochrysen-1-yl)propyl)-1H-pyrazole-4-carbonitrile]: not below 1000 nM.
For the compound `COC[C@@]1(O)CC[C@H]2[C@H](CC[C@@H]3[C@@H]2CC[C@@]2(C)[C@H]3[C@H](C)CC[C@@H]2[C@@](C)(O)Cn2cc(C#N)cn2)C1` (single isomer, unassigned) [Example 32], the IC50 was less than 100 nM.
With `CCC[C@@]1(O)CC[C@H]2[C@@H](CC[C@@H]3[C@@H]2CC[C@@]2(C)[C@H]3CCC[C@@H]2[C@@](C)(O)Cn2cc(C#N)cn2)C1` [Example 2, 1-((R)-2-hydroxy-2-((1S,4aS,4bR,6aS,8R,10aS,10bR,12aS)-8-hydroxy-12a-methyl-8-propyloctadecahydrochrysen-1-yl)propyl)-1H-pyrazole-4-carbonitrile], the IC50 lay within 100 to 1000 nM.
For `C[C@@H]1CC[C@H]([C@@](C)(O)Cn2cc(C#N)cn2)[C@@]2(C)CC[C@H]3[C@@H](CC[C@@H]4C[C@](C)(O)CC[C@@H]43)[C@H]12` [Example 24, 1-((R)-2-hydroxy-2-((1S,4R,4aS,4bR,6aR,8R,10aS,10bR,12aS)-8-hydroxy-4,8,12a-trimethyloctadecahydrochrysen-1-yl)propyl)-1H-pyrazole-4-carbonitrile] the value was less than 100 nM.
For `C[C@H]1[C@H]2[C@@H]3CC[C@@H]4C[C@](C)(O)CC[C@@H]4[C@H]3CC[C@]2(C)[C@@H]([C@](C)(O)Cn2cc(C#N)cn2)C[C@@H]1C` [Example 26, 1-((S)-2-hydroxy-2-((1S,3S,4R,4aS,4bR,6aR,8R,10aS,10bR,12aS)-8-hydroxy-3,4,8,12a-tetramethyloctadecahydrochrysen-1-yl)propyl)-1H-pyrazole-4-carbonitrile], the IC50 is less than 100 nM.
As for `C[C@@H]1CC[C@H]([C@](C)(O)Cn2cc(C#N)cn2)[C@@]2(C)CC[C@H]3[C@@H](CC[C@@H]4C[C@](C)(O)CC[C@@H]43)[C@H]12` [Example 25, 1-((S)-2-hydroxy-2-((1S,4R,4aS,4bR,6aR,8R,10aS,10bR,12aS)-8-hydroxy-4,8,12a-trimethyloctadecahydrochrysen-1-yl)propyl)-1H-pyrazole-4-carbonitrile], the IC50 is less than 100 nM.
Take `C[C@@]1(O)CC[C@@]2(C)[C@H](CC[C@@H]3[C@@H]2CC[C@@]2(C)[C@H]3CCC[C@@H]2[C@@](C)(O)Cn2cc(C#N)cn2)C1` [Example 15, 1-((R)-2-hydroxy-2-((1S,4aS,4bR,6aR,8R,10aS,10bS,12aS)-8-hydroxy-8,10a,12a-trimethyloctadecahydrochrysen-1-yl)propyl)-1H-pyrazole-4-carbonitrile]: the IC50 fell in the range of 100 to 1000 nM.
On to `CC[C@@]1(O)CC[C@H]2[C@@H](CC[C@@H]3[C@@H]2CC[C@@]2(C)[C@H]3CCC[C@@H]2[C@@](C)(O)Cn2cc(C#N)cn2)C1` [Example 11, 1-((R)-2-((1S,4aS,4bR,6aS,8R,10aS,10bR,12aS)-8-ethyl-8-hydroxy-12a-methyloctadecahydrochrysen-1-yl)-2-hydroxypropyl)-1H-pyrazole-4-carbonitrile], for which the IC50 was 100 to 1000 nM.
`C[C@]1(O)CC[C@@H]2CC[C@@H]3[C@H](CC[C@@]4(C)[C@H]3CC[C@@H]4[C@@](C)(O)Cn3cc(C#N)cn3)[C@@]2(C)CC1` [Example 23, 1-((R)-2-hydroxy-2-((1S,3aS,3bR,5aS,8S,10aS,10bS,12aS)-8-hydroxy-8,10a,12a-trimethyloctadecahydrocyclohepta[a]cyclopenta[f]naphthalen-1-yl)propyl)-1H-pyrazole-4-carbonitrile]: the IC50 was in the range of 100 to 1000 nM.
For `C[C@H]1[C@H]2[C@@H]3CC[C@@H]4C[C@](C)(O)CC[C@@H]4[C@H]3CC[C@]2(C)[C@@H]([C@@](C)(O)Cn2cc(C#N)cn2)C[C@@H]1C` [Example 27, 1-((R)-2-hydroxy-2-((1S,3S,4R,4aS,4bR,6aR,8R,10aS,10bR,12aS)-8-hydroxy-3,4,8,12a-tetramethyloctadecahydrochrysen-1-yl)propyl)-1H-pyrazole-4-carbonitrile], the IC50 is less than 100 nM.
For `CC[C@@]1(O)CC[C@H]2[C@H](CC[C@@H]3[C@@H]2CC[C@@]2(C)[C@H]3CCC[C@@H]2[C@](C)(O)Cn2cc(C#N)cn2)C1` [Example 7, 1-((S)-2-((1S,4aS,4bR,6aR,8R,10aS,10bR,12aS)-8-ethyl-8-hydroxy-12a-methyloctadecahydrochrysen-1-yl)-2-hydroxypropyl)-1H-pyrazole-4-carbonitrile] the value was 100 to 1000 nM.
Consider `C[C@@]1(O)CCC[C@H]2[C@H](CC[C@@H]3[C@@H]2CC[C@@]2(C)[C@H]3CC[C@@H]2[C@](C)(O)Cn2cc(C#N)cn2)C1` [Example 20, 1-((S)-2-hydroxy-2-((1S,3aS,3bR,5aR,7R,10aS,10bR,12aS)-7-hydroxy-7,12a-dimethyloctadecahydrocyclohepta[a]cyclopenta[f]naphthalen-1-yl)propyl)-1H-pyrazole-4-carbonitrile], for which the IC50 is less than 100 nM.
